Reference: publication PMC9454942, “Novel AR/AR-V7 and Mnk1/2 Degrader, VNPP433-3β: Molecular Mechanisms of Action and Efficacy in AR-Overexpressing Castration Resistant Prostate Cancer In Vitro and In Vivo Models” (Cells, 2022)

Molecular target: T1, androgen receptor (AR) ligand binding domain (Homo sapiens, UniProt P10275)
T1 construct: recombinant human AR LBD
T1 sequence (P10275 669-920 limits assumed): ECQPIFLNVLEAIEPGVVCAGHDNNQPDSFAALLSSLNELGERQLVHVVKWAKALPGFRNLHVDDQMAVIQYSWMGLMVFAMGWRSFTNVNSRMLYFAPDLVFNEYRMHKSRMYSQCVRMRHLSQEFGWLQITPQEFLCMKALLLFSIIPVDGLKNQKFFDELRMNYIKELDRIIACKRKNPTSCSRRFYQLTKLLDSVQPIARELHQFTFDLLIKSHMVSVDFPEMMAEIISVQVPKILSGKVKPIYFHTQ
Assay: fluorescence spectroscopy titration with purified AR LBD; supported by CETSA in LNCaP cells

Compound: C[C@]12CC[C@H](n3ccnc3)CC1=CC[C@@H]1[C@@H]2CC[C@]2(C)C(n3cnc4ccccc43)=CC[C@@H]12 [VNPP433-3β]
- Kd: 360 ± 30 nM
